The values below come from patent US20240075099A1, “COMPOSITIONS, ASSAYS, AND METHODS FOR TARGETING HDM2 AND HDMX TO REVERSE THE INHIBITION OF p53 IN [sequence] CANCERS” (Dana-Farber Cancer Institute, Inc., priority 2016, published 2024).

Data set [1] concerns MV4; 11 cells. Put plainly: Viability of pediatric AML cell line. In kind it is cell-based. To be noted: 11, FIG. 6A.
In data set [2] the test system is MV4; 11 cells. The experiment in a line: Cellular uptake, fluorescence scan of lysates from treated cells. The format is cell-based. To be noted: full serum, 4 h, FIG. 6B. Here is the method: Cellular Penetrability Assays: To measure the cell penetrability of peptides or crosslinked polypeptides, intact cells are incubated with fluoresceinated crosslinked polypeptides (10 μM) for 4 hrs in serum-free media or in media supplemented with human serum at 37° C., washed twice with media and incubated with trypsin (0.25%) for 10 min at 37° C. The cells are washed again and resuspended in PBS. Cellular fluorescence is analyzed, for example, by using either a FACSCalibur flow cytometer or Cellomics' KineticScan® HCS Reader. Alternative methods include, e.g., high content epifluorescence microscopy, confocal imaging, or fluorescence scan of electrophoresed lysates from FITC-peptide treated cells (see, e.g., LaBelle et al. JCI 2012, 122: 2018-31).

The test system of the next data set is Molm-14 leukemia cells. Put plainly: CellTiter-Glo viability, leukemia cells. In kind it is cell-based. The conditions noted are these: wild-type p53, 10% serum, 48 h, FIG. 11. Here is the method: (§1) Importantly, the sensitivity of RS4; 11 and Molm-14 cells is peptide sequence dependent, as the F19A point mutant analog of ALRN-7041, ALRN-7041 F19A, has no effect (FIG. 11). Leukemia cells were treated in 10% serum with a serial dilution of stapled p53 peptides or Nutlin 3a, and then measured by CellTiter-Glo assay.
(In general: In ATP-based viability assays light output follows the ATP content of the culture.)

The subject of the next data set is Nomo-1. The experiment in a line: CellTiter-Glo viability, leukemia cells. In kind it is cell-based. The conditions noted are these: mutant p53 (C242 frameshift), 10% serum, 48 h, FIG. 11. The method, then:
as §1

A further data set deals with RS4; 11 leukemia cells. Put plainly: CellTiter-Glo viability, leukemia cells. In kind it is cell-based. To be noted: wild-type p53, 10% serum, 48 h, FIG. 11. The method, then:
as §1

The test system of a further data set is Thp-1. The experiment in a line: CellTiter-Glo viability, leukemia cells. The format is cell-based. To be noted: mutant p53 (R174 frameshift), 10% serum, 48 h, FIG. 11. The method, then: as §1
Data set [3] has as its system p53 protein level in RS4; 11 cells. The experiment in a line: p53 protein level by flow cytometry. The format is cell-based. The conditions noted are these: 3 hours, 10% serum, FIG. 12. Here is the method: RS4; 11 cells were plated in 6-well plates (10^6/well) in RMPI containing 10% FBS and treated for 3 hours with ALRN-7041, ALRN-7041 F19A, or vehicle control (0.2% DMSO) in the presence of 10% serum. Cells were then harvested by centrifugation, washed in ice cold PBS, and resuspended in 100 viL PBS containing 1 μL Fixable Viability Stain 450 (BD Biosciences, Franklin Lakes. NJ, USA) and incubated in the dark at room temperature for 15 minutes. The cells were stained for p53 immunofluorescence with Cytofix/Cytoperm and the PE Mouse Anti-p53 Set (BD Biosciences) according to the manufacturer's instructions, using 10 viL PE-G59-12 anti-p53 mouse IgG1 or isotype control antibody per 10 6 cells. Stained and fixed cells were analyzed on an LSR II flow cytometer (BD Biosciences). Cell populations were gated on forward and side scatter to select for single cells and on fluorescence at 450 nm to select for live cells, and PE fluorescence in the gated population was measured at 578 nm.
(In flow cytometry, cells or beads pass a laser one at a time.)

In data set [4] the test system is high grade glioma (e.g. GBM) neurospheres bearing mutant p53. Put plainly: CellTiter-Glo viability, neurospheres. In kind it is cell-based. The conditions noted are these: 72 h, FIG. 13.
Description: (§4) Cells were plated in 96-well opaque plates (5000 cells/well) in Neurobasal-A/DMEM/F-12 mixture media containing HEPES, MEM sodium pyruvate, MEM non-essential amino acids, GlutaMAX, B27 Supplement, H-EGF, H-FGF, H-PDGF-AA, H-PDGF-BB, and heparin. The following day, the cells were treated with the indicated concentrations of drug or vehicle control (0.2% DMSO). […] Cell viability was measured after 72 h by CellTiter-Glo assay (Promega, Madison, WI, USA), performed according to the manufacturer's instructions, and percent viability calculated based on the untreated controls. Error bars are mean±s.e.m for experiments performed in technical triplicate.
In data set [5] the test system is Ewing sarcoma cell lines that bear wild-type p53. Put plainly: CellTiter-Glo viability, Ewing sarcoma cell line panel. The format is cell-based. The conditions noted are these: 72 h, FIG. 14. The source says: (§2) Error bars are mean±s.e.m. for eight technical replicates.
(§3) A panel of Ewing sarcoma cell lines that bear wild-type p53 (black) vs. mutant or deleted p53 (grey) were exposed to a serial dilution of ALRN-7041 (FIG. 14).

The test system of data set [6] is Ewing sarcoma cells bearing mutant or deleted p53. The description is as above. In kind it is cell-based. The conditions noted are these: 72 h, FIG. 14.
Description: as §2, §3

Data set [7] relates to p53 wild-type TC32 and TC138 Ewing sarcoma cells. Put plainly: Western blot of lysates, p53 pathway. In kind it is cell-based. To be noted: FIG. 15. The source says:
Western blot analysis of electrophoresed lysates from p53 wild-type TC32 and TC138 Ewing sarcoma cells treated with ALRN-7041 at the indicated doses and time points and probed with anti-MDM2, p53, and p21 antibodies.

A further data set has as its system TC32 Ewing sarcoma cells. Put plainly: Annexin V/PI staining and FACS analysis. In kind it is cell-based. The conditions noted are these: 1 μM, 48 hours post-treatment, FIG. 16. The method, then:
TC32 Ewing sarcoma cells were treated with vehicle or 1 μM ALRN-7041 and then subjected to Annexin V/PI staining and FACS analysis at 48 hours post-treatment.

The test system of data set [8] is TC32 Ewing Sarcoma xenograft. The experiment in a line: Western analysis of xenograft tumor tissue. In kind it is in vivo, mice. The conditions noted are these: three intravenous doses, 8 hours after last dose, FIG. 17. The method, then: After TC32 Ewing sarcoma tumor engraftment, mice were treated with three intravenous doses of ALRN-7041 or vehicle and sacrificed 8 hours after the last dose. Each lane of the gel represents an individual mouse tumor, subjected to western analysis using anti-MDM2, p53, and p21 antibodies. Anti-tubulin was used as a loading control.

Data set [9] has as its system TC32 Ewing Sarcoma xenografts. The experiment in a line: mRNA quantitation in xenograft tumor tissue. The format is in vivo, mice. To be noted: normalized to vehicle-treated samples, FIG. 18. The source says:
ALRN-7041 treatment of mice bearing TC32 Ewing Sarcoma xenografts increases MDM2 and p21 mRNA levels in tumor tissue (FIG. 18). Each bar represents the response of an individual mouse tumor, as assessed by replicates of mRNA quantitation. Values are normalized to vehicle-treated samples. Error bars are mean±SD.

Data set [10] deals with TC32 Ewing Sarcoma xenografts. Put plainly: Xenograft tumor growth. To be noted: 30 mg/kg IV q.o.d. vs vehicle, two-way ANOVA p=0.0036, FIG. 19. In kind it is in vivo, mice. The method, then:
Treatment of mice bearing TC32 Ewing Sarcoma xenografts with 30 mg/kg ALRN-7041 IV q.o.d. […] Error bars are mean±SD. For each animal, treatment was instituted when tumors achieved a tumor volume of 100 mm^3, as determined by caliper measurement. Statistical ignificance was calculated by two-way ANOVA analysis (p=0.0036).

The subject of data set [11] is DIPG neurospheres bearing wild-type p53.
Description: as §4

Entries after “also recorded” stand apart in the source; their conditions may differ.

For Ac-LTF*EYWAQZ*SAA-NH2 [ALRN-7041], the cell viability entry in the data set on MV4; 11 cells [1] was “impairs cell viability in both a dose-responsive and peptide sequence-dependent fashion; also recorded: dose-responsively impairs the viability”; with Molm-14 leukemia cells, “succumb to ALRN-7041 in dose-responsive fashion”; with Nomo-1, “unaffected by treatment”; with RS4; 11 leukemia cells it was “succumb to ALRN-7041 in dose-responsive fashion”; in the data set with Thp-1, “unaffected by treatment”; in [4] it was “no susceptibility”. Moreover, the cell viability result in data set [5] is given as “dose-responsively impaired the viability”; in [6] it was “little to no effect”; in [11] (72 h, FIG. 13) it was “succumb to treatment”. For the same compound, the cellular uptake result in the data set on MV4; 11 cells [2] is reported as “readily taken up by cells”. The p53 protein level entry in data set [3] is listed as “dose-responsively upregulates p53 protein level”. Also, in data set [7], the MDM2 protein induction result is given as “transient induction”. In data set [7], the p21 protein induction entry was “robust induction”. For the same compound, the p53 protein induction entry in data set [7] is “robust induction”. The “Annexin V/PI double positivity (apoptosis)” value in the data set with TC32 Ewing sarcoma cells is on record as “robust Annexin V/PI double positivity”. The “MDM2 protein level in tumor tissue” value in [8] is recorded as “induces”. Moreover, in data set [8], the “p21 protein level in tumor tissue” value is reported as “induces”. Also, the “p53 protein level in tumor tissue” value in data set [8] is recorded as “induces”. Further, the “MDM2 mRNA level in tumor tissue” value in data set [9] is “increases”. Besides, in data set [9], the “p21 mRNA level in tumor tissue” value was “increases”. Also, in [10], the tumor growth result was “statistically significant suppression of tumor growth”. Besides, the “cytotoxic effect compared to a selective small molecule inhibitor of HDM2” value in data set [11] was “markedly enhanced cytotoxic effect”.

In the case of `COc1ccc(C2=N[C@@H](c3ccc(Cl)cc3)[C@@H](c3ccc(Cl)cc3)N2C(=O)N2CCNC(=O)C2)c(OC(C)C)c1` [Nutlin-3a, reference compound], in the data set on MV4; 11 cells [1], the cell viability entry is given as “little to no effect; also recorded: resistant”.
